Values quoted from earlier work, collected in US5972375A, “Polyvinyl alcohol compositions prepared by crosslinking in a freezing step” (Implico BV, priority 1992, dated 1999).
Where two headings read alike, the source gives them in different places.

How the values were obtained:
Rat [1] = test system: Rat
Rat [2] = test system: Rat; remark: listed apart in the source

CC(C)=O [Acetone]
Oral absorption LD50 (Rat [1]; oral): 9800 mg/kg

CN(C)C=O [DMS, Dimethylformamide]
Oral absorption LD50 (Rat [1]; oral): 2800 mg/kg

C[S+](C)[O-] [DMSO, dimethyl sulphoxide]
Inhalation, non-lethal at (Rat [2]; 24 hr): 2900 mg/m^3
Inhalation, non-lethal at (Rat [2]; 40 hr): 2000 mg/m^3
Intravenous route LD50 (Rat [2]; intravenous): 5.4 g/kg of Body weight
Percutaneous route LD50 (Rat [2]; percutaneous (undiluted)): 40 g/kg of Body weight
Percutaneous route LD50 (Mouse): 50 g/kg of Body weight
Intravenous route LD50 (Dog; intravenous): 2.5 g/kg of Body weight
Oral route LD50 (Dog; oral): > 10 g/kg of Body weight
Percutaneous route LD50 (Dog; percutaneous): > 11 g/kg of Body weight
Intravenous route LD50 (Primate; intravenous): 4 g/kg of Body weight
Oral route LD50 (Primate; oral): > 4 g/kg of Body weight
Percutaneous route LD50 (Primate; percutaneous): > 11 g/kg of Body weight
Oral absorption LD50 (Rat [1]; oral): 19700 mg/kg

CCO [Ethanol]
Oral absorption LD50 (Rat [1]; in vivo, po): 7100 mg/kg

OCC(O)CO [Glycerol]
Oral absorption LD50 (Rat [1]; in vivo, po): 12600 mg/kg

CN1CCCC1=O [N-Methylpyrrolidone]
Oral absorption LD50 (Rat [1]; oral): 4200 mg/kg
